Reference: patent US20090182020A1, “SUBSTITUTED BIS(HETERO)AROMATIC N--ETHYLPROPIOLAMIDES AND USE THEREOF FOR PRODUCTION OF MEDICAMENTS” (GRUNENTHAL GMBH, priority 2005, published 2009)

Molecular target: T1, mGluR5 receptor (pig) (Sus scrofa, UniProt I3LUI7)
T1 construct: 450 μg protein from brain homogenate is incubated with 5 nM ^3[H]-MPEP; from tissue; host or cells: pig brain halves without medulla, cerebellum and pons
Assay: [3H]-MPEP bond in the mGluR5 receptor bond assay (pig brain homogenate)
Assay type: binding
Settings: 5 nM [3H]-MPEP; for IC50: pig brain homogenate; for inhibition at 10 µM: 10 μM test compound, 450 μg protein pig brain homogenate, 60 min room temperature
Experimental: I. Method for Determining the Inhibition of the [^3H]-MPEP Bond in the mGluR5 Receptor Bond Assay
Pig brain homogenate is produced by homogenisation (Polytron PT 3000, Kinematica AG, 10,000 rpm for 90 seconds) of pig brain halves without medulla, cerebellum and pons in buffer pH 8.0 (30 mM Hepes, Sigma, order no. H3375+1 tablet complete to 100 ml, Roche Diagnostics, order no. 1836145) in the ratio 1:20 (brain weight/volume) and differential centrifugation at 900×g and 40,000×g. In each case, 450 μg protein from brain homogenate is incubated with 5 nM ^3[H]-MPEP (Tocris, order no. […]
Thereafter, the batches are filtered with the help of a Brandel Cell Harvester (Brandel, TYP Robotic 9600) on unifilter plates with glass fibre filter mats (Perkin Elmer, order no. 6005177) and subsequently washed with buffer (as above) 3 times with in each case 250 μl per sample. The filter plates are subsequently dried for 60 min at 55° C. 30 μL Ultima Gold™ scintillator (Packard BioScience, order no. 6013159) is subsequently added per well and the samples are measured after 3 hours on the β-counter (Mikrobeta, Perkin Elmer). The unspecific bond is determined by addition of 10 μM MPEP (Tocris, order no. 1212).

T1 sequence (I3LUI7 19-1212): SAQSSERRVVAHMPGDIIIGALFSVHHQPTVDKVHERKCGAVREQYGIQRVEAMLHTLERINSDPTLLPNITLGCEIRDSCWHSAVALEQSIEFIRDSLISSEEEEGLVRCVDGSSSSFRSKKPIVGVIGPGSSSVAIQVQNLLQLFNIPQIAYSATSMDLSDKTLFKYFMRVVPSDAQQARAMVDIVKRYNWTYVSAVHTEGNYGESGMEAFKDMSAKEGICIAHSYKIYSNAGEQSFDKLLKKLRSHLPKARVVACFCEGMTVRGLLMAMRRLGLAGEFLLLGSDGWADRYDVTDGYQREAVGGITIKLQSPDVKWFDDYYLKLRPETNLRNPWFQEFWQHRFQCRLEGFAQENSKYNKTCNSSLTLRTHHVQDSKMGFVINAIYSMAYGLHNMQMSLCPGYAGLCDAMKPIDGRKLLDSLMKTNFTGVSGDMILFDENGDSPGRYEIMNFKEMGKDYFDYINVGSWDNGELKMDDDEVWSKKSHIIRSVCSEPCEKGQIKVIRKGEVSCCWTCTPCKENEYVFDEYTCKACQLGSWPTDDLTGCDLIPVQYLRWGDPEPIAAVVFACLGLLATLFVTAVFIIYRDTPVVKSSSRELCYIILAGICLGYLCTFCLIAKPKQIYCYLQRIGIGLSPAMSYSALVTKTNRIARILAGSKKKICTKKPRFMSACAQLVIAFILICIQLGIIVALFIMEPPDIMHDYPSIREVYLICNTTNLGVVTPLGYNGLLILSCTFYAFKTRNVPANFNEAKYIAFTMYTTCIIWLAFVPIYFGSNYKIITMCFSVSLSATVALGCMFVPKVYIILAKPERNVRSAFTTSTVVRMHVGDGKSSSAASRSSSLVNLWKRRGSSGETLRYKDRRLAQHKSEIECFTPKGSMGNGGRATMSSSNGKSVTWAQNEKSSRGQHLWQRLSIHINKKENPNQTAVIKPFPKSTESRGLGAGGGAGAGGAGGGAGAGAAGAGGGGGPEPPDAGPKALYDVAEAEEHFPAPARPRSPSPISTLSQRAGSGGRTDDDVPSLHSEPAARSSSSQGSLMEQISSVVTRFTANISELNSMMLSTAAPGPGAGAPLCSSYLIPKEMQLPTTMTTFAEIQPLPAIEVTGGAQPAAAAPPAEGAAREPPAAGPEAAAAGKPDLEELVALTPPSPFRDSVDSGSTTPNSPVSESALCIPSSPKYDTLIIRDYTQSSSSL

Row | Compound | IC50 [nM] | inhibition at 10 µM [%]
1 | O=C(C#Cc1cccc(Cl)c1)NCCc1ccccc1 [Example 2, 3-(3-chlorophenyl)-N-phenethylpropiolamide] | 44 | –
2 | O=C(C#Cc1cccc(Cl)c1)NCCc1ccccn1 [Example 3, 3-(3-chlorophenyl)-N-(2-(pyridine-2-yl)ethyl)propiolamide] | 34 | –
3 | O=C(C#Cc1cccc(Cl)c1)NCCc1ccncc1 [Example 4, 3-(3-chlorophenyl)-N-(2-(pyridine-4-yl)ethyl)propiolamide] | 2000 | –
4 | COc1cccc(C#CC(=O)NCCc2ccccn2)c1 [Example 6, 3-(3-methoxyphenyl)-N-(2-(pyridine-2-yl)ethyl)propiolamide] | – | 82
5 | Cc1cc(C#CC(=O)NCCc2ccccn2)ccc1F [Example 7, 3-(4-fluoro-3-methylphenyl)-N-(2-(pyridine-2-yl)ethyl)propiolamide] | – | 82
6 | O=C(C#Cc1ccccc1F)NCCc1ccccn1 [Example 8, 3-(2-fluorophenyl)-N-(2-(pyridine-2-yl)ethyl)propiolamide] | – | 70
7 | O=C(C#Cc1ccccc1)NCCc1ccccn1 [Example 11, 3-phenyl-N-(2-(pyridine-2-yl)ethyl)propiolamide] | – | 81
8 | Cc1cccc(C#CC(=O)NCCc2ccccn2)c1 [Example 18, N-(2-(pyridine-2-yl)ethyl)-3-m-tolyl-propiolamide] | – | 90
9 | O=C(C#Cc1ccc(F)cc1)NCCc1ccccn1 [Example 20, 3-(4-fluoro-phenyl)-N-(2-(pyridine-2-yl)ethyl)propiolamide] | – | 54
10 | O=C(C#Cc1cccs1)NCCc1ccccn1 [Example 25, N-(2-(pyridine-2-yl)ethyl)-3-thiophene-2-yl-propiolamide] | – | 68
11 | O=C(C#Cc1ccc2[nH]ccc2c1)NCCc1ccccn1 [Example 38, 3-(1H-indol-5-yl)-N-(2-(pyridine-2-yl)ethyl)propiolamide] | – | 36
12 | Cc1cc(C#CC(=O)N(C)CCc2ccccc2)ccc1F [Example 41, 3-(4-fluoro-3-methylphenyl)-N-methyl-N-phenethylpropiolamide] | – | 92
13 | CN(CCc1ccccc1)C(=O)C#Cc1ccccc1F [Example 42, 3-(2-fluorophenyl)-N-methyl-N-phenethylpropiolamide] | – | 90
14 | Cc1cccc(C#CC(=O)N(C)CCc2ccccc2)c1 [Example 46, N-methyl-N-phenethyl-3-m-tolylpropiolamide] | – | 97
15 | Cc1ccc(C#CC(=O)N(C)CCc2ccccc2)c(C)c1 [Example 47, 3-(2,4-dimethylphenyl)-N-methyl-N-phenethylpropiolamide] | – | 51
16 | CN(CCc1ccccc1)C(=O)C#Cc1cccc(C(F)(F)F)c1 [Example 49, N-methyl-N-phenethyl-3-(3-(trifluoromethyl)phenyl)propiolamide] | – | 108
17 | CN(CCc1ccccc1)C(=O)C#Cc1ccccc1C#N [Example 55, 3-(2-cyanophenyl)-N-methyl-N-phenethylpropiolamide] | – | 40
18 | Cc1cc(C#CC(=O)NCCc2cccs2)ccc1F [Example 56, 3-(4-fluoro-3-methylphenyl)-N-(2-(thiophene-2-yl)ethyl)propiolamide] | – | 54
19 | Cc1cccc(C#CC(=O)NCCc2c[nH]c3ccccc23)c1 [Example 57, N-(2-(1H-indol-3-yl)ethyl)-3-m-tolylpropiolamide] | – | 91
20 | COc1cccc(C#CC(=O)NCCc2cccc(Cl)c2)c1 [Example 58, N-(3-chlorophenethyl)-3-(3-methoxyphenyl)propiolamide] | – | 91
21 | COc1cccc(C#CC(=O)NCCc2ccc(C)cc2)c1 [Example 59, 3-(3-methoxyphenyl)-N-(4-methylphenethyl)propiolamide] | – | 57
22 | COc1cccc(C#CC(=O)NCCc2ccc(F)cc2)c1 [Example 61, N-(4-fluorophenethyl)-3-(3-methoxyphenyl)propiolamide] | – | 85
23 | Cc1cc(C#CC(=O)NCCc2cccc(Cl)c2)ccc1F [Example 62, N-(3-chlorophenethyl)-3-(4-fluoro-3-methylphenyl)propiolamide] | – | 75
24 | O=C(C#Cc1ccccc1)NCCc1cccc(Cl)c1 [Example 65, N-(3-chlorophenethyl)-3-phenylpropiolamide] | – | 97
25 | Cc1ccc(CCNC(=O)C#Cc2ccccc2)cc1 [Example 66, N-(4-methylphenethyl)-3-phenylpropiolamide] | – | 64
26 | O=C(C#Cc1ccccc1)NCCc1ccc(F)cc1 [Example 68, N-(4-fluorophenethyl)-3-phenylpropiolamide] | – | 90

Row | Compound | IC50 [nM] | inhibition at 10 µM [%]
27 | Cc1cccc(C#CC(=O)NCCc2cccc(Cl)c2)c1 [Example 69, N-(3-chlorophenethyl)-3-m-tolylpropiolamide] | – | 107
28 | Cc1ccc(CCNC(=O)C#Cc2cccc(C)c2)cc1 [Example 70, N-(4-methylphenethyl)-3-m-tolylpropiolamide] | – | 89
29 | Cc1cccc(C#CC(=O)NCC(c2ccccc2)c2ccccc2)c1 [Example 71, N-(2,2-diphenylethyl)-3-m-tolylpropiolamide] | – | 57
30 | O=C(C#Cc1ccc(F)cc1)NCCc1ccccc1 [Example 72, 3-(4-fluorophenyl)-N-phenethylpropiolamide] | – | 57
31 | O=C(C#Cc1cccs1)NCCc1cccs1 [Example 73, 3-(thiophene-2-yl)-N-(2-(thiophene-2-yl)ethyl)propiolamide] | – | 76
32 | CN(CCc1ccccc1)C(=O)C#Cc1ccc(F)cc1F [Example 78, 3-(2,4-difluorophenyl)-N-methyl-N-phenethylpropiolamide] | – | 69
33 | COc1cccc(C#CC(=O)N(C)CCc2ccccc2)c1 [Example 80, 3-(3-methoxyphenyl)-N-methyl-N-phenethylpropiolamide] | – | 70
34 | COc1cccc(C#CC(=O)NCCc2ccccc2)c1 [Example 81, 3-(3-methoxyphenyl)-N-phenethylpropiolamide] | – | 79
35 | Cc1cc(C#CC(=O)NCCc2ccccc2)ccc1F [Example 82, 3-(4-fluoro-3-methylphenyl)-N-phenethylpropiolamide] | – | 69
36 | O=C(C#Cc1ccccc1)NCCc1ccccc1 [Example 83, N-phenethyl-3-phenylpropiolamide] | – | 91
37 | Cc1cccc(C#CC(=O)NCCc2ccccc2)c1 [Example 84, N-phenethyl-3-m-tolylpropiolamide] | – | 89
38 | O=C(C#Cc1cccs1)NCCc1ccccc1 [Example 85, N-phenethyl-3-(thiophene-2-yl)propiolamide] | – | 79
39 | N#Cc1cccc(C#CC(=O)NCCc2ccccc2)c1 [Example 86, 3-(3-cyanophenyl)-N-phenethylpropiolamide] | – | 86
40 | COc1cccc(C#CC(=O)NCCc2c[nH]c3ccccc23)c1 [Example 87, N-(2-(1H-indol-3-yl)ethyl)-3-(3-methoxyphenyl)propiolamide] | – | 42
41 | O=C(C#Cc1ccc(F)cc1)NCCc1cccc(Cl)c1 [Example 89, N-(3-chlorophenethyl)-3-(4-fluorophenyl)propiolamide] | – | 64
42 | O=C(C#Cc1ccc(F)cc1)NCCc1ccc(F)cc1 [Example 92, N-(4-fluorophenethyl)-3-(4-fluorophenyl)propiolamide] | – | 42
43 | O=C(C#Cc1cccc(Cl)c1)NCCc1cccc(Cl)c1 [Example 93, N-(3-chlorophenethyl)-3-(3-chlorophenyl)propiolamide] | – | 89
44 | O=C(C#Cc1cccs1)NCCc1cccc(Cl)c1 [Example 94, N-(3-chlorophenethyl)-3-(thiophene-2-yl)propiolamide] | – | 84
45 | Cc1ccc(CCNC(=O)C#Cc2cccs2)cc1 [Example 95, N-(4-methylphenethyl)-3-(thiophene-2-yl)propiolamide] | – | 75
46 | O=C(C#Cc1cccs1)NCC(c1ccccc1)c1ccccc1 [Example 96, N-(2,2-diphenylethyl)-3-(thiophene-2-yl)propiolamide] | – | 31
47 | Cc1ccc(CCNC(=O)C#Cc2cccc(C#N)c2)cc1 [Example 97, 3-(3-cyanophenyl)-N-(4-methylphenethyl)propiolamide] | – | 96
48 | N#Cc1cccc(C#CC(=O)NCC(c2ccccc2)c2ccccc2)c1 [Example 98, 3-(3-cyanophenyl)-N-(2,2-diphenylethyl)propiolamide] | – | 40
49 | N#Cc1cccc(C#CC(=O)NCCc2ccc(F)cc2)c1 [Example 99, 3-(3-cyanophenyl)-N-(4-fluorophenethyl)propiolamide] | – | 89
50 | O=C(C#Cc1ccccc1)NCCc1ccc(Cl)c(Cl)c1 [Example 101, N-(3,4-dichlorophenethyl)-3-phenylpropiolamide] | – | 89
51 | Cc1cccc(C#CC(=O)NCCc2ccc(Cl)c(Cl)c2)c1 [Example 102, N-(3,4-dichlorophenethyl)-3-m-tolylpropiolamide] | – | 105
